The text below walks through data of patent US8653046B2, “Controlling transgene expression across the skin” (ETH Zurich, priority 2009, dated 2014).

A short description of data set [1]: Stability (half-live) of phloretin in culture medium, quantified via CHO-PEACE8 SEAP calibration curve. Format: physicochemical.
For data set [2] the following is noted: rodents, cited from earlier work.
The target in data set [3] is TtgA1 (TtgR-VP16) (Pseudomonas putida, UniProt Q9AIU0). Put plainly: PEACE: SEAP expression after transient co-transfection of pMG10 (PTtgR1-SEAP-pA) and pMG11 (PSV40-TtgA1-pA). It counts as cell-based. Also on record: key to SEAP Production: ^a): Undetectable. As to conditions: 48 h. From the text: Living in the plant rhizosphere, Pseudomonas putida DOT-T1E has evolved resistance to a variety of plant-derived antimicrobials, which is triggered by phloretin-induced release of TtgR protein from the operator (OTtgR) of its target promoter and subsequent induction of a broadly specific TtgABC efflux pump (Teran W. et al., loc. cit.).
Three different transactivators are designed, harboring either the VP16 (TtgA1; pMG11, TtgR-VP16) (Triezenberg S. J. et al., loc. cit.), the p65 (TtgA2; pMG18, TtgR-p65) (Urlinger S., et al., 2000, Gene 247(1-2):103-110) or the human E2F4 (TtgA3; pMG19, TtgR-E2F4) (Akagi K., Kanai M., Saya H., Kozu T., Berns A., 2001, Nucleic Acids Res 29(4):e23) transactivation domains. pMG11, pMG18 or pMG19 are co-transfected with pMG10 (PTtgR1-SEAP-pA) into CHO-K1, HEK-293 as well as primary human fibroblasts and keratinocytes, and SEAP expression is profiled after 48 h of cultivation in the presence or absence of 50 μM phloretin.
CHO-K1 are transiently (co-)transfected with either pMG10 (PTtgR1-SEAP-pA) and pMG11 (PSV40-TtgA1-pA), to score regulation performance, or with pSEAP2-Control (PSV40-SEAP-pA), to assess compound-related cytotoxicity, and then cultivated for 48 h in medium containing different concentrations (0, 25, 50 μM) of specific flavonoid type compounds (berberine, butylparaben, genistein, luteolin, β-naphthol, naringenin, phloretin, phloridzin or quercetin) before SEAP production is profiled (FIG. 5A).
Wild-type Chinese hamster ovary cells (CHO-K1, ATCC: CCL-61) and their derivatives are cultivated in standard medium: ChoMaster® HTS (Cell Culture Technologies, Gravesano, Switzerland) supplemented with 5% (v/v) fetal calf serum (FCS, PAN Biotech GmbH, Aidenbach, Germany, Cat. No. 3302, Lot No. P251110) and 1% (v/v) penicillin/streptomycin solution (Sigma, St Louis, Mo., USA, Cat. No. P4458). Human embryonic kidney cells (HEK-293, Mitta B., et al., 2002, Nucleic Acids Res 30(21):e113), African green monkey kidney cells (COS-7, ATCC: CRL-1651), baby hamster kidney cells (BHK-21, ATCC: CCL10), human fibrosarcoma cells (HT-1080, ATCC: CCL-121), the human keratinocyte cell line HaCaT (Boukamp P., et al., 1988, J Cell Biol 106(3):761-771) and mouse fibroblasts (NIH/3T3, ATCC: CRL-1658) are cultured in Dulbecco's modified Eagle's medium (DMEM; Invitrogen, Cat. No. 52100-39) supplemented with 10% FCS (v/v) and 1% (v/v) penicillin/streptomycin solution. Primary human foreskin fibroblasts are cultivated in DMEM supplemented with 20% FCS (v/v) and 1% (v/v) penicillin/streptomycin solution and primary human foreskin keratinocytes are cultured in chemically defined serum-free keratinocyte medium (Invitrogen, Cat. No. 10744019). All cell types are cultivated at 37° C. in a 5% CO2-containing humidified atmosphere.

The test system of data set [4] is CHO-K1 cells transgenic for constitutive SEAP expression. In words: Control mice receiving CHO-K1 cells transgenic for constitutive SEAP expression, phloretin skin lotion. Format: in vivo, female OF1 mice. The following applies: constitutive SEAP implant; skin lotion with 42 mg phloretin (0 mg: 6.2±0.43 U/L). The method, then:
CHO-PEACE8 is microencapsulated in coherent alginate-PLL-alginate capsules and implanted subcutaneously into mice. The back of treated mice is partially shaved and vaseline-based skin lotions (200 μL) containing different amounts of phloretin (0-42 mg) are put on every day. […] Control mice receiving CHO-K1 cells transgenic for constitutive SEAP expression are insensitive to any treatment with phloretin-containing skin lotion (0 mg phloretin: 6.2±0.43 U/L; 42 mg phloretin: 6.02±0.58 U/L).
CHO-PEACE8 and CHO-SEAP18 (Fluri D. A., Kemmer C., Daoud-El Baba M., Fussenegger M., 2008, J Control Release 131(3):211-219) are encapsulated in alginate-poly-(L-lysine)-alginate beads (400 μm; 200 cells/capsule) using an Inotech Encapsulator Research IE-50R (Recipharm, Basel, Switzerland) according to the manufacturer's instructions and the following parameters: 0.2 mm nozzle, 20 mL syringe at a flow rate of 405 units, nozzle vibration frequency of 1024 Hz and 900 V for bead dispersion. […] Thereafter, the mice are sacrificed, blood samples collected and SEAP levels are quantified in the serum which is isolated using microtainer SST tube according to the manufacturer's instructions (Beckton Dickinson, Plymouth, UK). […]

Sequence of TtgA1 (TtgR-VP16) (Q9AIU0 whole entry, added parts left off): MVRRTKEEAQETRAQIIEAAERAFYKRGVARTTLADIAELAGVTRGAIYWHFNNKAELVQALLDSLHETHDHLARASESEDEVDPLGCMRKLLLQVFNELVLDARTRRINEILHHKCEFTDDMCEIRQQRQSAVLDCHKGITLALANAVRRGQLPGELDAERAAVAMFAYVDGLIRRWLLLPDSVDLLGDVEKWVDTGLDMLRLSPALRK

Compound `O=C(CCc1ccc(O)cc1)c1c(O)cc(O)cc1O` [phloretin, 3-[4-hydroxyphenyl]-1-[2,4,6-trihydroxyphenyl]-1-propanone] had a functional half-live in data set [1] (cell-free culture medium, levels determined over 64 h) of 70 h. In addition, the half-live in data set [1] (mammalian cell culture systems) is 70 h. Besides, the half-life in vivo entry in data set [2] is reported as “rather short half-life in vivo”. Besides, in data set [2] (dermal administration), the “systemic distribution after dermal administration” value was “systemically spread”. Besides, the SEAP Production was 1.5 ± 0.2 U/L in data set [3] (BHK-21, 50 μM Phloretin); 0.2 ± 0.016 U/L in data set [3] (CHO-K1, phloretin 50 μM); “*” in data set [3] (COS-7, 50 μM Phloretin); 0.2 ± 0.04 U/L in data set [3] (HEK-293, 50 μM Phloretin); 0.2 ± 0.04 U/L in data set [3] (HEK-293, phloretin 50 μM); “*” in data set [3] (HT-1080, 50 μM Phloretin). Besides, the SEAP Production entry is listed as “*” in data set [3] (HaCaT, 50 μM Phloretin); “*” in data set [3] (NIH/3T3, 50 μM Phloretin); “*” in data set [3] (Primary human fibroblasts, 50 μM Phloretin); “*” in data set [3] (Primary human keratinocytes, 50 μM Phloretin). Further, the “PEACE regulation performance (SEAP production)” value in data set [3] (CHO-K1, 0, 25, 50 μM) was “full transgene repression”. Also, the “SEAP expression dose response” value in data set [3] (CHO-K1, phloretin 0-70 μM) is “dose-dependent reduction of SEAP expression up to complete repression”. Also, in data set [4], the “SEAP level in control mice” value is given as 6.02±0.58 U/L.
